Among the data in patent US9675549B2, “Tablet containing composite with cyclodextrin” (AMBIT BIOSCIENCES CORPORATION, priority 2012, dated 2017) are Hill coefficient and Solubility in water values, retold here.

This data set is described as follows: Examination of molecular state of AC220 in aqueous solution (1H chemical shift displacements, NOESY). The format is physicochemical. How it is done: The molecular state of AC220 in the aqueous solution was examined. […] The protons of d and e could not be analyzed due to the overlapping with other proton signals.
Furthermore, the Hill coefficient was calculated from the analysis of the ^1H chemical shift displacements: the value was greater than 1, and indicated a network formation. It was confirmed that the addition of methanol to the AC220 aqueous solution inhibited the gel formation, and that the network was formed by intermolecular hydrogen bonding.

Consider `CC(C)(C)c1cc(NC(=O)Nc2ccc(-c3cn4c(n3)sc3cc(OCCN5CCOCC5)ccc34)cc2)no1` [AC220, N-(5-tert-butyl-isoxazol-3-yl)-N′-{4-[7-(2-morpholin-4-yl-ethoxy)imidazo[2,1-b][1,3]benzothiazol-2-yl]phenyl}urea], for which the Hill coefficient result (calculated from 1H chemical shift displacements of AC220 aqueous solutions, indicates network formation) is reported as “greater than 1”. Besides, the Solubility in water entry (gelation of the aqueous solution with increasing concentration) is listed as “soluble”.
